# Results taken from patent US10696615B2, “Prenylated hydroxystilbenes” (The University of Sydney, priority 2011, dated 2020).
# How the values were obtained:
# [1] = tested on: SNB-19; assay: NCI in vitro cancer screen, CNS Cancer; format: cell-based, human; details: SNB-19
# [2] = tested on: NCI-H226; assay: NCI in vitro cancer screen, Non-Small Cell Lung Cancer; format: cell-based, human; details: NCI-H226
# [3] = tested on: MALME-3M; assay: NCI in vitro cancer screen, Melanoma; format: cell-based, human
# [4] = tested on: DU-145; assay: NCI in vitro cancer screen, Prostate Cancer; format: cell-based, human; details: DU-145
# [5] = tested on: A549/ATCC; assay: NCI in vitro cancer screen, Non-Small Cell Lung Cancer; format: cell-based, human
# [6] = tested on: HOP-92; assay: as above; format: cell-based, human; details: HOP-92
# [7] = tested on: U251; assay: NCI in vitro cancer screen, CNS Cancer; format: cell-based, human; details: U251
# [8] = tested on: KM12; assay: NCI in vitro cancer screen, Colon Cancer; format: cell-based, human; details: KM12
# [9] = tested on: HT29; assay: NCI in vitro cancer screen, Colon Cancer; format: cell-based, human; details: HT29
# [10] = tested on: SNB-75; assay: NCI in vitro cancer screen, CNS Cancer; format: cell-based, human; details: SNB-75
# [11] = tested on: OVCAR-4; assay: NCI in vitro cancer screen, Ovarian Cancer; format: cell-based, human; details: OVCAR-4
# [12] = tested on: HCT-116; assay: NCI in vitro cancer screen, Colon Cancer; format: cell-based, human; details: HCT-116
# [13] = tested on: COLO 205; assay: NCI in vitro cancer screen, Colon Cancer; format: cell-based, human; details: COLO 205
# [14] = tested on: UACC-257; assay: NCI in vitro cancer screen, Melanoma; format: cell-based, human; details: UACC-257
# [15] = tested on: IGROV1; assay: NCI in vitro cancer screen, Ovarian Cancer; format: cell-based, human; details: IGROV1
# [16] = tested on: OVCAR-5; assay: NCI in vitro cancer screen, Ovarian Cancer; format: cell-based, human; details: OVCAR-5
# [17] = tested on: NCI-H522; assay: NCI in vitro cancer screen, Non-Small Cell Lung Cancer; format: cell-based, human; details: NCI-H522
# [18] = tested on: ACHN; assay: NCI in vitro cancer screen, Renal Cancer; format: cell-based, human
# [19] = tested on: OVCAR-3; assay: NCI in vitro cancer screen, Ovarian Cancer; format: cell-based, human; details: OVCAR-3
# [20] = tested on: ADR-RES (NCI/ADR-RES); assay: NCI in vitro cancer screen, Ovarian Cancer; format: cell-based, human
# [21] = tested on: K-562; assay: NCI in vitro cancer screen, Leukemia; format: cell-based, human; details: K-562
# [22] = tested on: MOLT-4; assay: NCI in vitro cancer screen, Leukemia; format: cell-based, human; details: MOLT-4
# [23] = tested on: HL-60 (TB); assay: NCI in vitro cancer screen, Leukemia; format: cell-based, human; details: HL-60 (TB)
# [24] = tested on: UO-31; assay: NCI in vitro cancer screen, Renal Cancer; format: cell-based, human; details: UO-31
# [25] = tested on: SW-620; assay: NCI in vitro cancer screen, Colon Cancer; format: cell-based, human; details: SW-620
# [26] = tested on: MDA-MB-231 (MDA-MB-231/ATCC); assay: NCI in vitro cancer screen, Breast Cancer; format: cell-based, human; details: MDA-MB-231
# [27] = tested on: MCF7; assay: NCI in vitro cancer screen, Breast Cancer; format: cell-based, human; details: MCF7
# [28] = tested on: CAKI-1; assay: NCI in vitro cancer screen, Renal Cancer; format: cell-based, human; details: CAKI-1
# [29] = tested on: NCI-H322M; assay: NCI in vitro cancer screen, Non-Small Cell Lung Cancer; format: cell-based, human
# [30] = tested on: SF-539; assay: NCI in vitro cancer screen, CNS Cancer; format: cell-based; details: SF-539
# [31] = tested on: SF-295; assay: NCI in vitro cancer screen, CNS Cancer; format: cell-based, human; details: SF-295
# [32] = Homo sapiens, read-out: LC50 (the source's name)
structure (smiles),measurement,setting,value
"CC(C)=CCOc1cc(O)cc(/C=C/c2ccc(O)c(O)c2)c1 [USYDS4, (E)-3-(3-methyl-2-butenyloxy)-3′,4′,5-trihydroxystilbene]",GI50,[1]; Homo sapiens,10.5 µM
same,CC50,[1]; [32],63.8 µM
same,TGI,[1],25.8 µM
same,GI50,[2]; Homo sapiens,5.14 µM
same,LC50 (50% lethal concentration),[2]; Homo sapiens,78 µM
same,TGI,[2],23.1 µM
same,GI50,"[3]; Homo sapiens, Malme-3M",7.25 µM
same,CC50,"[3]; Homo sapiens, Malme-3M, read-out: LC50 (the source's name)",> 100 µM
same,TGI,[3]; MALME-3M,30.6 µM
same,TGI,[4],44.6 µM
same,GI50,[4]; Homo sapiens,6.37 µM
same,CC50,[4]; [32],> 100 µM
same,TGI,[5],25.6 µM
same,GI50,[5]; Homo sapiens,4.74 µM
same,CC50,[5]; [32],> 100 µM
same,TGI,[6],13.6 µM
same,GI50,[6]; Homo sapiens,1.92 µM
same,CC50,[6]; [32],62.3 µM
same,GI50,"[7]; Homo sapiens, U-251",3.67 µM
same,CC50,"[7]; Homo sapiens, U-251, read-out: LC50 (the source's name)",45.5 µM
same,TGI,[7],15.6 µM
same,GI50,[8]; Homo sapiens,3.27 µM
same,CC50,[8]; [32],46.5 µM
same,TGI,[8],14.2 µM
same,TGI,[9],32.5 µM
same,GI50,"[9]; Homo sapiens, HT-29",16.3 µM
same,CC50,"[9]; Homo sapiens, HT-29, read-out: LC50 (the source's name)",64.7 µM
same,GI50,[10]; Homo sapiens,1.77 µM
same,CC50,[10]; [32],48.3 µM
same,TGI,[10],9.11 µM
same,GI50,[11]; Homo sapiens,3.98 µM
same,CC50,[11]; [32],> 100 µM
same,TGI,[11],50.4 µM
same,TGI,[12],16.0 µM
same,GI50,[12]; Homo sapiens,4.55 µM
same,LC50 (concentration killing 50% of cells),[12]; Homo sapiens,40.6 µM
same,TGI,[13],23.0 µM
same,GI50,[13]; Homo sapiens,9.72 µM
same,CC50,[13]; [32],53.5 µM
same,GI50,[14]; Homo sapiens,5.44 µM
same,CC50,[14]; [32],48.6 µM
same,TGI,[14],19.4 µM
same,GI50,"[15]; Homo sapiens, IGROV-1",3.74 µM
same,CC50,"[15]; Homo sapiens, IGROV-1, read-out: LC50 (the source's name)",> 100 µM
same,TGI,[15],44.8 µM
same,GI50,[16]; Homo sapiens,15.9 µM
same,CC50,[16]; [32],> 100 µM
same,TGI,[16],51.4 µM
same,GI50,[17]; Homo sapiens,1.07 µM
same,CC50,[17]; [32],6.04 µM
same,TGI,[17],2.54 µM
same,TGI,[18],>100 µM
same,GI50,[18]; Homo sapiens,4.57 µM
same,CC50,[18]; [32],> 100 µM
same,GI50,[19]; Homo sapiens,3.98 µM
same,CC50,[19]; [32],44.9 µM
same,TGI,[19],15.0 µM
same,TGI,[20]; ADR-RES,48.3 µM
same,GI50,"[20]; Homo sapiens, NCI/ADR-RES",1.11 µM
same,CC50,"[20]; Homo sapiens, NCI/ADR-RES, read-out: LC50 (the source's name)",> 100 µM
same,GI50,"[21]; Homo sapiens, K562",2.35 µM
same,CC50,"[21]; Homo sapiens, K562, read-out: LC50 (the source's name)",> 100 µM
same,TGI,[21],>100 µM
same,GI50,[22]; Homo sapiens,4.31 µM
same,CC50,[22]; [32],> 100 µM
same,TGI,[22],21.6 µM
same,TGI,[23],6.04 µM
same,GI50,[23]; Homo sapiens,2.59 µM
same,CC50,[23]; [32],> 100 µM
same,GI50,[24]; Homo sapiens,3.31 µM
same,CC50,[24]; [32],66.4 µM
same,TGI,[24],20.7 µM
same,GI50,[25]; Homo sapiens,2.97 µM
same,CC50,[25]; [32],46.5 µM
same,TGI,[25],16.6 µM
same,GI50,[26]; Homo sapiens,1.04 µM
same,CC50,[26]; [32],> 100 µM
same,TGI,[26],18.4 µM
same,GI50,[27]; Homo sapiens,2.57 µM
same,CC50,[27]; [32],51.1 µM
same,TGI,[27],18.2 µM
same,TGI,[28],>100 µM
same,GI50,[28]; Homo sapiens,5.25 µM
same,CC50,[28]; [32],> 100 µM
same,TGI,[29],54.7 µM
same,GI50,[29]; Homo sapiens,12.8 µM
same,LC50 (50% lethal concentration),[29]; Homo sapiens,> 100 µM
same,GI50,[30]; Homo sapiens,3.45 µM
same,CC50,[30]; [32],97.5 µM
same,TGI,[30],22.3 µM
same,GI50,[31]; Homo sapiens,7.29 µM
same,CC50,[31]; [32],70.9 µM
same,TGI,[31],24.3 µM
